Entries after “also recorded” stand apart in the source; their conditions may differ.
Tests used:
[1] = tested on: microdissected hair follicles (dermal sheath contraction); experiment: Ex vivo hair follicle contraction assay (live imaging of microdissected follicles, high K+ depolarization); assay type: cell-based, mouse; settings: preincubation with 200 μM ML7 HCl for 1 hour, follicles from P8 back skin, hydrochloride
Protocol: Whether DS cells can functionally contract in a smooth muscle-like fashion through Ca2+-dependent MLCK activation was then explored. Isolated, short-term cultured DS cells were membrane depolarized by an extracellular K+ spike to activate voltage-gated Ca2+ channels in the presence of Fluo8 fluorescent Ca2+ indicator. The switch from high Na+ to high K+ media led to effective Ca2+ influx within 1.5 minutes (FIG. 3A). […] Next, whether the DS can functionally contract and compress intact hair follicles isolated by microdissection (FIG. 3C) was tested.
Hair follicles were microdissected from P8 back skin under a Leica S6E stereomicroscope in PBS and collected in 24-well plates. Media was then changed to Krebs buffer+glucose with or without 200 μM ML7 HCl (Tocris) and incubated for 1 hour at 37° C. Single follicles were then transferred to a 6 cm petri dishes immersed in Krebs buffer+glucose and immobilized by embedding the hair shaft tips in a 5×5 mm piece of parafilm. Follicles were then imaged under brightfield illumination on a Leica inverted DM6000 microscope in an enclosed live cell chamber at 37° C. with 5% CO2. Images were taken with a 10× air lens with time intervals of 10 seconds. During imaging, media was exchanged for Krebs buffer+glucose with KCl supplanting NaCl and follicles were refocused when necessary, which took a duration of no more than 10 seconds. […]

[2] = tested on: hair follicle regression (catagen) in back skin; experiment: In vivo contraction inhibition (topical application on back skin during catagen); design: species or system mice; settings: 1 mM in 20 μl DMSO, topical twice daily P13 to P19, back skin analysed at P20
Description: To determine whether smooth muscle-like contraction is a main function of the DS to propagate hair follicle regression in vivo, the MLCK pathway was blocked by twice-daily topical application of ML7 throughout catagen on the back skin of mice (FIG. 3G). On the contralateral vehicle control side, follicles regressed normally into telogen with the DP niche relocated next to the SC reservoir (FIG. 3H). […] However, in contrast to ablated follicles, the DS as expected surrounds follicles including DP. […] Patches of lateral back skin measuring 1×1 cm of P13 mice (2 patches per mouse) were clipped and then shaved with a razor blade until no external hair shafts within patches remained. Vehicle-only control DMSO or ML7 HCl (Tocris) dissolved in an equal volume of DMSO (1 mM in 20 μl) was pipetted onto hairless patches and locally rubbed into the skin using a glass rod until visibly dry. Topical applications were performed twice daily from P13 to P19, once in the morning and once in the evening separated by 12 hours. Pieces of back skins including treated areas were then harvested at P20 for downstream analysis.

Cl.O=S(=O)(c1cccc2c(I)cccc12)N1CCCNCC1 [ML7, hexahydro-1-[(5-iodo-1-naphthalenyl)sulfonyl]-1H-1,4-diazepine hydrochloride]
reduction of follicle widths in high K+ (follicle contraction) [1]: effectively blocked | DP niche relocation to the stem cells [2]: the DP remains at the tip of stalled follicles | hair follicle regression into telogen (stalled follicles) ([2]; contralateral DMSO vehicle control, hydrochloride): striking failure of regression with long stalled follicles stranded deep in the dermis; also recorded: blocks hair follicle regression in vivo

Reference: patent US12533359B2, “Method for preventing hair loss” (Icahn School of Medicine at Mount Sinai, priority 2019, dated 2026)
